Measured values taken from patent US20210355106A1, “NEW AMINO-PYRIMIDONYL-PIPERIDINYL DERIVATIVES, A PROCESS FOR THEIR PREPARATION AND PHARMACEUTICAL COMPOSITIONS CONTAINING THEM” (LES LABORATOIRES SERVIER, priority 2018, published 2021).
Where a name gives a salt, the structure may show the parent alone.

Target: T1, USP7 (Homo sapiens, UniProt Q93009, C315A)
T1 construct: 0.25 nM His-His-USP7 (aa208-560, |C315A|) was incubated with compound; His-His (N)
Test: Inhibition of USP7 by Fluorescence Intensity (FLINT) readings, Ubiquitin-Rhodamine-110 substrate
Assay type: biochemical
Settings: 0.25 nM His-His-USP7 (aa208-560), 60 minutes at 30° C. preincubation; Ki determined from IC50 according to Cer et al.
Experimental: USP7 activity was measured using Rhodamine-110 c-terminal labelled Ubiquitin as a substrate (UbiQ Bio), Incubation with USP7 results in the release of Rhodamine-110 leading to an increase in fluorescence which can be used in the continuous measurement of USP7 activity.
The USP7 reactions were performed in a 50 μL volume, in 384 well black solid low binding plates (Corning #3575). The reaction buffer consisted of 100 mM Bicine pH 8.0, 0.01% TritonX 100, 1 mM TCEP, and 10% DMSO.
0.25 nM His-His-USP7 (aa208-560, |C315A|) was incubated with compound (final concentration 10% DMSO) for 60 minutes at 30° C. The reaction was then initiated by the addition of 50) nM Ubiquitin-Rhodamine-110 substrate or 4 μM Ubiquitin-Rhodamine-110 substrate and the plate read every 3 minutes for 21 minutes to measure the release of Rhodamine-110. Fluorescence Intensity (FLINT) readings were measured using a Biomek Neo plate reader (Ex.485 nm, Em.535 nm).
The inhibition of increasing doses of compound was expressed as a percentage reduction in kinetic rate compared to the kinetic rates established between ‘DMSO only’ and ‘total inhibition’ controls (no USP7). The inhibitory concentrations that gave a 50% reduction in kinetic rate (IC50) were determined, from 11-point dose response curves, in XL-Fit using a 4-Parameter Logistic Model 205 (Sigmoidal Dose-Response Model). The K, values were determined from the IC50 values according to Cer et al. Nucleic Acids Res. 2009, July 1; 37 (WebServer issue): W441-W445.

T1 sequence (Q93009 208-560 C315A): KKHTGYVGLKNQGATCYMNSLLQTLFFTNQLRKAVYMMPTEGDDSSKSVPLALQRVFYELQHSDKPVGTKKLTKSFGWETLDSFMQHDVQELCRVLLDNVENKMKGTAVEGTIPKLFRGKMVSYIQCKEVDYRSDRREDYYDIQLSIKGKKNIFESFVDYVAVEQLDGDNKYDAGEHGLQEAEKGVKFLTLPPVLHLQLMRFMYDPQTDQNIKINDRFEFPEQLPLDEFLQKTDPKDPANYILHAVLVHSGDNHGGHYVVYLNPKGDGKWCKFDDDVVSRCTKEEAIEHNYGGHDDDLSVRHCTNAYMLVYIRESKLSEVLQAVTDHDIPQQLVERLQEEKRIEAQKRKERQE

Structure (SMILES) | Ki [nM]
COc1cc(Cl)cc(Oc2ncn(CC3(O)CCN(C(=O)[C@@H]4CCN(C(=O)OC(C)(C)C)C[C@H]4c4ccccc4)CC3)c(=O)c2N)c1 [Example 2, tert-butyl (3R,4R)-4-[4-[[5-amino-4-(3-chloro-5-methoxy-phenoxy)-6-oxo-pyrimidin-1-yl]methyl]-4-hydroxy-piperidine-1-carbonyl]-3-phenyl-piperidine-1-carboxylate] | 191
CC(C)(C)OC(=O)N1CC[C@@H](C(=O)N2CCC(O)(Cn3cnc(Oc4ccc(Cl)c(F)c4)c(N)c3=O)CC2)[C@H](c2ccccc2)C1 [Example 3, tert-butyl (3R,4R)-4-[4-[[5-amino-4-(4-chloro-3-fluoro-phenoxy)-6-oxo-pyrimidin-1-yl]methyl]-4-hydroxy-piperidine-1-carbonyl]-3-phenyl-piperidine-1-carboxylate] | 125
COc1cc(Oc2ncn(CC3(O)CCN(C(=O)[C@@H]4CCN(C(=O)OC(C)(C)C)C[C@H]4c4ccccc4)CC3)c(=O)c2N)ccc1F [Example 4, tert-butyl (3R,4R)-4-[4-[[5-amino-4(4-fluoro-3-methoxy-phenoxy)-6-oxo-pyrimidin-1-yl]methyl]-4-hydroxy-piperidine-1-carbonyl]-3-phenyl-piperidine-1-carboxylate] | 115
CC(C)(C)OC(=O)N1CC[C@@H](C(=O)N2CCC(O)(Cn3cnc(Oc4cccc(OC(F)(F)F)c4)c(N)c3=O)CC2)[C@H](c2ccccc2)C1 [Example 6] | 398
CC(C)(C)OC(=O)N1CC[C@@H](C(=O)N2CC[C@](O)(Cn3cnc(Oc4ccc(F)cc4)c(N)c3=O)C(F)(F)C2)[C@H](c2ccccc2)C1 [Example 10] | 104
Nc1c(Oc2ccc(Cl)cc2)ncn(CC2(O)CCN(C(=O)[C@@H]3CCNC[C@H]3c3ccccc3)CC2)c1=O [Example 14, 5-amino-6-(4-chlorophenoxy)-3-[[4-hydroxy-1-[(3R,4R)-3-phenylpiperidine-4-carbonyl]-4-piperidyl]methyl]pyrimidin-4-one hydrochloride] | 115
COc1cc(Cl)cc(Oc2ncn(CC3(O)CCN(C(=O)[C@@H]4CCNC[C@H]4c4ccccc4)CC3)c(=O)c2N)c1 [Example 15] | 286
Nc1c(Oc2ccc(Cl)c(F)c2)ncn(CC2(O)CCN(C(=O)[C@@H]3CCNC[C@H]3c3ccccc3)CC2)c1=O [Example 16] | 232
COc1cc(Oc2ncn(CC3(O)CCN(C(=O)[C@@H]4CCNC[C@H]4c4ccccc4)CC3)c(=O)c2N)ccc1F [Example 17, 5-amino-6-(4-fluoro-3-methoxy-phenoxy)-3-[[4-hydroxy-1-(3R,4R)-3-phenylpiperidine-4-carbonyl]-4-piperidyl]methyl]pyrimidin-4-one hydrochloride] | 116
Nc1c(Oc2cccc(C(F)(F)F)c2)ncn(CC2(O)CCN(C(=O)[C@@H]3CCNC[C@H]3c3ccccc3)CC2)c1=O [Example 18, 5-amino-3-[[4-hydroxy-1-[(3R,4R)-3-phenylpiperidine-4-carbonyl]-4-piperidyl]methyl]-6-[3-(trifluoromethyl)phenoxy]pyrimidin-4-one hydrochloride] | 329
Nc1c(Oc2cccc(OC(F)(F)F)c2)ncn(CC2(O)CCN(C(=O)[C@@H]3CCNC[C@H]3c3ccccc3)CC2)c1=O [Example 19, 5-amino-3-[[4-hydroxy-1-[(3R,4R)-3-phenylpiperidine-4-carbonyl]-4-piperidyl]methyl]-6-[3-(trifluoromethoxy)phenoxy]pyrimidin-4-one hydrochloride] | 344

Results, then the molecule that gave them:

Ki [nM] | Structure (SMILES)
112 | Nc1c(Oc2ccc(F)cc2)ncn(C[C@@]2(O)CCN(C(=O)[C@@H]3CCN(C(=O)C4CC(c5ccccc5)C4)C[C@H]3c3ccccc3)CC2(F)F)c1=O (single isomer, unassigned) [Example 71]
235 | Nc1c(Oc2ccc(F)cc2)ncn(C[C@@]2(O)CCN(C(=O)[C@@H]3CCN(C(=O)C4CC(c5ccccc5)C4)C[C@H]3c3ccccc3)CC2(F)F)c1=O (single isomer, unassigned) [Example 72]
103 | CC(C)(C)OC(=O)N1CC[C@@H](C(=O)N2CCC(O)(Cn3cnc(Oc4ccc(Cl)cc4)c(N)c3=O)CC2)[C@H](c2ccccc2)C1 [Example 1, tert-butyl (3R,4R)-4-[4-[[5-amino-4-(4-chlorophenoxy)-6-oxo-pyrimidin-1-yl]methyl]-4-hydroxy-piperidine-1-carbonyl]-3-phenyl-piperidine-1-carboxylate]
299 | CC(C)(C)OC(=O)N1CC[C@@H](C(=O)N2CCC(O)(Cn3cnc(Oc4cccc(C(F)(F)F)c4)c(N)c3=O)CC2)[C@H](c2ccccc2)C1 [Example 5, tert-butyl (3R,4R)-4-[4-[[5-amino-6-oxo-4-[3-(trifluoromethyl)phenoxy]pyrimidin-1-yl]methyl]-4-hydroxy-piperidine-1-carbonyl]-3-phenyl-piperidine-1-carboxylate]
137 | CC(C)(C)OC(=O)N1CC[C@@H](C(=O)N2CCC(O)(Cn3cnc(Oc4ccccc4)c(N)c3=O)CC2)[C@H](c2ccccc2)C1 [Example 7, tert-butyl (3R,4R)-4-[4-[(5-amino-6-oxo-4-phenoxy-pyrimidin-1-yl)methyl]-4-hydroxy-piperidine-1-carbonyl]-3-phenyl-piperidine-1-carboxylate]
131 | CC(C)(C)OC(=O)N1CC[C@@H](C(=O)N2CCC(O)(Cn3cnc(Oc4ccc(F)cc4)c(N)c3=O)CC2)[C@H](c2ccccc2)C1 [Example 8, tert-butyl (3R,4R)-4-[4-[[5-amino-4-(4-fluorophenoxy)-6-oxo-pyrimidin-1-yl]methyl]-4-hydroxy-piperidine-1-carbonyl]-3-phenyl-piperidine-1-carboxylate]
82.5 | CC(C)(C)OC(=O)N1CC[C@@H](C(=O)N2CC[C@](O)(Cn3cnc(Oc4ccccc4)c(N)c3=O)C(F)(F)C2)[C@H](c2ccccc2)C1 [Example 9, tert-butyl (3R,4R)-4-[(4S)-4-[(5-amino-6-oxo-4-phenoxy-pyrimidin-1-yl)methyl]-3,3-difluoro-4-hydroxy-piperidine-1-carbonyl]-3-phenyl-piperidine-1-carboxylate]
112 | Nc1c(Oc2ccccc2)ncn(CC2(O)CCN(C(=O)[C@@H]3CCNC[C@H]3c3ccccc3)CC2)c1=O [Example 20, 5-amino-3-[4-hydroxy-1-[(3R,4R)N-phenylpiperidine-4-carbonyl-4-piperidyl]methyl]-6-phenoxy-pyrimidin-4-one]
103 | Nc1c(Oc2ccc(F)cc2)ncn(CC2(O)CCN(C(=O)[C@@H]3CCNC[C@H]3c3ccccc3)CC2)c1=O [Example 21, 5-amino-6-(4-fluorophenoxy)-3-[[4-hydroxy-1-[(3R,4R)-3-phenylpiperidine-4-carbonyl]-4-piperidyl]methyl]pyrimidin-4-one]
4.6 | Cc1ccc(-c2cccc(C(=O)N3CC[C@@H](C(=O)N4CCC(O)(Cn5cnc(Oc6ccc(F)cc6)c(N)c5=O)CC4)[C@H](c4ccccc4)C3)c2)cn1 [Example 32]
5.1 | Nc1c(Oc2ccc(F)cc2)ncn(CC2(O)CCN(C(=O)[C@@H]3CCN(C(=O)c4ccc5nc[nH]c(=O)c5c4)C[C@H]3c3ccccc3)CC2)c1=O [Example 57, 6-[(3R,4R)-4-(4-t[5-amino-4-(4-fluorophenoxy)-6-oxopyrimidin-[(6N)-yl]methyl}-4-hydroxypiperidine-1-carbonyl)-3-phenylpiperidine-1-carbonyl]quinazolin-4(3n)-one]
6.51 | Nc1c(Oc2ccc(F)cc2)ncn(CC2(O)CCN(C(=O)[C@@H]3CCN(C(=O)c4ccc5c(c4)C(=O)C(=O)N5)C[C@H]3c3ccccc3)CC2)c1=O [Example 58, 5-[(3R,4R)-4-[4-[[5-amino-4-(4-fluorophenoxy)-6-oxo-pyrimidin-1-yl]methyl]-4-hydroxy-piperidine-1-carbonyl]-3-phenyl-piperidine-1-carbonyl]indoline-2,3-dione]
326 | CC(C)(O)CN1CC[C@@H](C(=O)N2CCC(O)(Cn3cnc(Oc4ccc(F)cc4)c(N)c3=O)CC2)[C@H](c2ccccc2)C1 [Example 73, 5-amino-6-(4-fluorophenoxy)-3-[[4-hydroxy-1-[(3R,4R)-1-(2-hydroxy-2-methyl-propyl)-3-phenyl-piperidine-4-carbonyl]-4-piperidyl]methyl]pyrimidin-4-one]
121 | Nc1c(Oc2ccc(F)cc2)ncn(CC2(O)CCN(C(=O)[C@@H]3CCN(C(=O)NCc4ccccc4)C[C@H]3c3ccccc3)CC2)c1=O [Example 79, (3R,4R)-4-[4-[[5-amino-4-(4-fluorophenoxy)-6-oxo-pyrimidin-1-yl]methyl]-4-hydroxy-piperidine-1-carbonyl]-N-benzyl-3-phenyl-piperidine-1-carboxamide]
16 | COc1ccc(NC(=O)N2CC[C@@H](C(=O)N3CCC(O)(Cn4cnc(Oc5ccc(F)cc5)c(N)c4=O)CC3)[C@H](c3ccccc3)C2)c(OC)c1 [Example 82]
